From PubChem BioAssay AID1963421 (Molecular Pharmacology Branch, DTP, NCI, 2024)
pIC50: −log10 of the molar value.

Tested on: 519858-162-T-J1-PDC complex spheroid growth, % test/control
Experiment: Anticancer human tumor 519858-162-T-J1-PDC patient-derived colon adenocarcinoma cell line growth inhibition [Asc]
Settings: for pIC50: curve of first compound; for viability, T/C: stronger effect = lower value; active means viability on the fitted dose curve at most 10% of control; inactive means the rest
Summary of the method: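 Concentration series start at each agent's clinical Cmax, or at 10 microM when none is established, and drop in half-log steps; agents are applied alone or together to complex spheroids built with HUVEC and hMSC.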
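Further: seven day drug exposure begun three days after spheroid seeding.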
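Wherever viability, T/C is given: 100% = DMSO vehicle wells and lower values mean less viable spheroid.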

CCN1C(C(=O)NC23CCC(C(=O)O)(CC2)CC3)C(c2cccc(Cl)c2F)C2(C(=O)Nc3cc(Cl)ccc32)C12CCCCC2 (configuration not stated) + CNC(C)C(=O)NC1CN(S(=O)(=O)c2cccc(S(=O)(=O)N3CCC4CCC(C(=O)NC(c5ccccc5)c5ccccc5)N4C(=O)C(NC(=O)C(C)NC)C3)c2)CCC2CCC(C(=O)NC(c3ccccc3)c3ccccc3)N2C1=O
< 5.52: pIC50 (second compound 0.00316 µM) | pIC50 (second compound 0.01 µM) | pIC50 (second compound 0.0316 µM) | pIC50 (second compound 0.1 µM) | pIC50 (second compound 0.316 µM) | pIC50 (second compound 1 µM)
inactive: viability, T/C (second compound 0.00316 µM, first compound 0.00949 µM) 92% | viability, T/C (second compound 0.00316 µM, first compound 0.03 µM) 118% | viability, T/C (second compound 0.00316 µM, first compound 0.0949 µM) 111% | viability, T/C (second compound 0.00316 µM, first compound 0.3 µM) 83.8% | viability, T/C (second compound 0.00316 µM, first compound 0.949 µM) 108% | viability, T/C (second compound 0.00316 µM, first compound 3 µM) 65.8% | viability, T/C (second compound 0.01 µM, first compound 0.00949 µM) 101% | viability, T/C (second compound 0.01 µM, first compound 0.03 µM) 106% | viability, T/C (second compound 0.01 µM, first compound 0.0949 µM) 112% | viability, T/C (second compound 0.01 µM, first compound 0.3 µM) 80.1% | viability, T/C (second compound 0.01 µM, first compound 0.949 µM) 89.2% | viability, T/C (second compound 0.01 µM, first compound 3 µM) 82.6% | viability, T/C (second compound 0.0316 µM, first compound 0.00949 µM) 96.4% | viability, T/C (second compound 0.0316 µM, first compound 0.03 µM) 73.9% | viability, T/C (second compound 0.0316 µM, first compound 0.0949 µM) 122% | viability, T/C (second compound 0.0316 µM, first compound 0.3 µM) 94% | viability, T/C (second compound 0.0316 µM, first compound 0.949 µM) 83.5% | viability, T/C (second compound 0.0316 µM, first compound 3 µM) 82.1% | viability, T/C (second compound 0.1 µM, first compound 0.00949 µM) 94.7% | viability, T/C (second compound 0.1 µM, first compound 0.03 µM) 73.8% | viability, T/C (second compound 0.1 µM, first compound 0.0949 µM) 82.1% | viability, T/C (second compound 0.1 µM, first compound 0.3 µM) 93.2% | viability, T/C (second compound 0.1 µM, first compound 0.949 µM) 80.1% | viability, T/C (second compound 0.1 µM, first compound 3 µM) 89.6% | viability, T/C (second compound 0.316 µM, first compound 0.00949 µM) 96% | viability, T/C (second compound 0.316 µM, first compound 0.03 µM) 115% | viability, T/C (second compound 0.316 µM, first compound 0.0949 µM) 92.8% | viability, T/C (second compound 0.316 µM, first compound 0.3 µM) 79.6% | viability, T/C (second compound 0.316 µM, first compound 0.949 µM) 81.3% | viability, T/C (second compound 0.316 µM, first compound 3 µM) 105% | viability, T/C (second compound 1 µM, first compound 0.00949 µM) 78.9% | viability, T/C (second compound 1 µM, first compound 0.03 µM) 84.7% | viability, T/C (second compound 1 µM, first compound 0.0949 µM) 66.1% | viability, T/C (second compound 1 µM, first compound 0.3 µM) 112% | viability, T/C (second compound 1 µM, first compound 0.949 µM) 82.2% | viability, T/C (second compound 1 µM, first compound 3 µM) 83.1%
